Data: patent publication US20260200928A1, “THERAPEUTIC COMPOUNDS” (Sanofi, priority 2022, published 2026)
pIC50: −log10 of the molar value.

Molecular target: T1, human IL-17A (Homo sapiens, UniProt Q16552)
T1 construct: purchased R&D Systems 7955-IL/CF
T1 sequence (Q16552 24-155): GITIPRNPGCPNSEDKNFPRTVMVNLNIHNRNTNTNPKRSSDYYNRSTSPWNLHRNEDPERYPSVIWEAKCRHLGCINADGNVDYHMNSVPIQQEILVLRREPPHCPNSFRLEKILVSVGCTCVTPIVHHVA
Assay: IL-17A AlphaLISA competition assay (block of IL-17A binding to its receptor IL-17RA)
Details: mean IC50 (n≥2), block of IL-17A binding to IL-17RA
Experimental: The ability of the compounds to block binding of IL-17A to its receptor, IL-17RA, was analysed in a competition assay using AlphaLISA technology (Perkin Elmer). The assay is a bead based AlphaLISA where the IL-17RA is captured on the acceptor bead via an Fc tag and IL-17A is captured on the streptavidin donor bead via a biotinylated anti-IL17A antibody.
Assay buffer was prepared by adding 0.05% Tween-20 (v/v) and 0.1% BSA to Phosphate Buffered Saline (PBS). The assay was carried out in 384-well white low volume plates (Perkin Elmer #6008359). 10 μL of a 7.5 nM stock of human recombinant IL-17A (R&D Systems 7955-IL/CF) diluted in assay buffer was dispensed into the assay plate and compounds or DMSO vehicle control were added in a volume of 75 nL using an acoustic dispenser (Beckman). The compounds were pre-incubated with the IL-17A for 30 min at room temperature prior to addition of 5 μL of a 5 nM stock of human recombinant IL-17RA/Fc chimera (R&D Systems 177-IR-100) diluted in assay buffer. The IL-17A was incubated with the receptor for a further 90 minutes at room temperature before addition of 5 μL of a mixture of anti-human Fc IgG acceptor beads (75 μg/mL, Perkin Elmer AL1030) and anti-IL-17A biotin conjugated antibody (5 nM, Abcam, #ab155575) in assay buffer. After a further 30 min incubation at room temperature, 5 μL of streptavidin donor beads (75 μg/mL, Perkin Elmer 6760002S) were added and the plate was incubated for 3 h in the dark.
The AlphaLisa signal was measured using the PheraSTAR plate reader (BMG). Data were analysed using GeneData Screener and fitted to a 4-parameter logistic equation. The IC50 values were calculated using the DMSO vehicle as the negative control and a high concentration (4 μM) of a reference IL-17A inhibitor as the positive control. All compounds were analysed at least in duplicate (n≥2).

pIC50 | SMILES
6.28 | CC(C)n1nccc1C(=O)N[C@H](C(=O)Nc1cc(C[C@@H]2C[C@@H](C(F)(F)F)NC2=O)ccn1)[C@H]1CC[C@H](C)CC1 [Example 154, 1-isopropyl-N—((S)-1-((1r,4S)-4-methylcyclohexyl)-2-oxo-2-((4-(((3R,5S)-2-oxo-5-(trifluoromethyl)pyrrolidin-3-yl)methyl)pyridin-2-yl)amino)ethyl)-1H-pyrazole-5-carboxamide]
6.72 | CCc1conc1C(=O)N[C@H](C(=O)Nc1cc([C@@H](COC)N2C[C@@H](C(F)(F)F)NC2=O)ccn1)C1CC(F)(F)C1 [Example 261, N—((S)-1-(3,3-difluorocyclobutyl)-2-((4-((S)-2-methoxy-1-((S)-2-oxo-4-(trifluoromethyl)imidazolidin-1-yl)ethyl)pyridin-2-yl)amino)-2-oxoethyl)-4-ethylisoxazole-3-carboxamide]
6.44 | CCn1nccc1C(=O)N[C@H](C(=O)Nc1cc(C(C)(C)N2C[C@@H](C(F)(F)F)NC2=O)ccn1)C1CCC(F)(F)CC1 [Example 174, N-((S)-1-(4,4-difluorocyclohexyl)-2-oxo-2-((4-(2-((S)-2-oxo-4-(trifluoromethyl)imidazolidin-1-yl)propan-2-yl)pyridin-2-yl)amino)ethyl)-1-ethyl-1H-pyrazole-5-carboxamide]
7.55 | CC[C@H](c1ccnc(NC(=O)[C@@H](NC(=O)c2ccnn2CC)C2CCC(F)(F)CC2)c1)N1C[C@@H](C(F)(F)F)NC1=O [Example 213, N-((S)-1-(4,4-difluorocyclohexyl)-2-oxo-2-((4-((R)-1-((S)-2-oxo-4-(trifluoromethyl)imidazolidin-1-yl)propyl)pyridin-2-yl)amino)ethyl)-1-ethyl-1H-pyrazole-5-carboxamide]
6.99 | COC[C@H](c1ccnc(NC(=O)C(NC(=O)c2nonc2OCC(F)(F)F)C2CCC(F)CC2)c1)N1C[C@@H](C(F)(F)F)NC1=O (single isomer, unassigned) [Example 282]
7.34 | CC[C@H](c1ccnc(NC(=O)[C@@H](NC(=O)c2ccnn2C)C2CCC(F)(F)CC2)c1)N1C[C@@H](C(F)(F)F)NC1=O [Example 214, N-((S)-1-(4,4-difluorocyclohexyl)-2-oxo-2-((4-((R)-1-((S)-2-oxo-4-(trifluoromethyl)imidazolidin-1-yl)propyl)pyridin-2-yl)amino)ethyl)-1-methyl-1H-pyrazole-5-carboxamide]
4.63 | CC(C)n1nccc1C(=O)NC(C(=O)Nc1cc(Cc2cccc(=O)n2C)ccn1)C1CCC(F)(F)CC1 (stereo not shown) [Example 35, N-(1-(4,4-difluorocyclohexyl)-2-((4-((1-methyl-6-oxo-1,6-dihydropyridin-2-yl)methyl)pyridin-2-yl)amino)-2-oxoethyl)-1-isopropyl-1H-pyrazole-5-carboxamide]
5.16 | CN1C(=O)N(Cc2ccnc(NC(=O)[C@@H](NC(=O)OC(C)(C)C)[C@H]3CC[C@H](C)CC3)c2)CC12CCC2 [Example 23, Tert-butyl ((S)-2-((4-((5-methyl-6-oxo-5,7-diazaspiro[3.4]octan-7-yl)methyl)pyridin-2-yl)amino)-1-((1r,4S)-4-methylcyclohexyl)-2-oxoethyl)carbamate]

The remaining lines, values behind:

SMILES | pIC50
CC(C)n1nccc1C(=O)N[C@H](C(=O)Nc1cc(OC2CCNC2=O)ccn1)[C@H]1CC[C@H](C)CC1 (stereo partly drawn) [Example 119, 1-isopropyl-N-((1S)-1-((1r,4S)-4-methylcyclohexyl)-2-oxo-2-((4-((2-oxopyrrolidin-3-yl)oxy)pyridin-2-yl)amino)ethyl)-1H-pyrazole-5-carboxamide] | 5.40
C[C@@H](OC(C)(C)C)[C@@H](NC(=O)OCc1ccccc1)C(=O)Nc1cc(CN2C[C@@H](C(F)(F)F)NC2=O)ccn1 [Example 100, Benzyl ((2R,3R)-3-(tert-butoxy)-1-oxo-1-((4-(((S)-2-oxo-4-(trifluoromethyl)imidazolidin-1-yl)methyl)pyridin-2-yl)amino)butan-2-yl)carbamate] | 4.76
Cn1nccc1C(=O)N[C@H](C(=O)Nc1cc(OC2CCNC2=O)ccn1)[C@H]1CC[C@H](C)CC1 (stereo partly drawn) [Example 118, 1-methyl-N-((1S)-1-((1r,4S)-4-methylcyclohexyl)-2-oxo-2-((4-((2-oxopyrrolidin-3-yl)oxy)pyridin-2-yl)amino)ethyl)-1H-pyrazole-5-carboxamide] | 5.05
C[C@@H]1CNC(=O)N1Cc1ccnc(NC(=O)[C@@H](NC(=O)OC(C)(C)C)[C@H]2CC[C@H](C)CC2)c1 [Example 29, Tert-butyl ((S)-2-((4-(((R)-5-methyl-2-oxoimidazolidin-1-yl)methyl)pyridin-2-yl)amino)-1-((1r,4S)-4-methylcyclohexyl)-2-oxoethyl)carbamate] | 6.37
COCC(NC(=O)CCC(F)(F)F)c1ccnc(NC(=O)[C@@H](NC(=O)c2nccn2C(C)C)C2CCC(F)(F)CC2)c1 (single isomer, unassigned) [Example 148] | 5.08
COC[C@H](c1ccnc(NC(=O)[C@@H](NC(=O)Cc2ccc(OC)nc2)C2CCC(F)(F)CC2)c1)N1C[C@@H](C(F)(F)F)NC1=O [Example 204, (S)-2-(4,4-difluorocyclohexyl)-N-(4-((S)-2-methoxy-1-((S)-2-oxo-4-(trifluoromethyl)imidazolidin-1-yl)ethyl)pyridin-2-yl)-2-(2-(6-methoxypyridin-3-yl)acetamido)acetamide] | 6.89
COC[C@H](c1ccnc(NC(=O)[C@@H](NC(=O)c2cnoc2C(C)C)[C@@H]2C[C@H]3C[C@H]3C2)c1)N1C[C@@H](C(F)(F)F)NC1=O [Example 319, N—((S)-1-((1R,3s,5S)-bicyclo[3.1.0]hexan-3-yl)-2-((4-((S)-2-methoxy-1-((S)-2-oxo-4-(trifluoromethyl)imidazolidin-1-yl)ethyl)pyridin-2-yl)amino)-2-oxoethyl)-5-isopropylisoxazole-4-carboxamide] | 7.42
CCc1ncoc1C(=O)NC(C(=O)Nc1cc(C[C@H]2C[C@@H](C(F)(F)F)NC2=O)ccn1)C1CCC(F)(F)CC1 (stereo in doubt) [Example 217, N—((S)-1-(4,4-difluorocyclohexyl)-2-oxo-2-((4-(((3S,5S)-2-oxo-5-(trifluoro-methyl)pyrrolidin-3-yl)methyl)pyridin-2-yl)amino)ethyl)-4-ethyloxazole-5-carboxamide] | 6.33
COC[C@H](c1ccnc(NC(=O)[C@@H](NC(=O)c2conc2C(C)C)C2CCC(F)(F)CC2)c1)N1C[C@@H](C(F)(F)F)NC1=O [Example 197, N-((S)-1-(4,4-difluorocyclohexyl)-2-((4-((S)-2-methoxy-1-((S)-2-oxo-4-(trifluoromethyl)imidazolidin-1-yl)ethyl)pyridin-2-yl)amino)-2-oxoethyl)-3-isopropylisoxazole-4-carboxamide] | 7.25
CCc1nocc1C(=O)N[C@H](C(=O)Nc1cc([C@@H](CC)N2C[C@@H](C(F)(F)F)NC2=O)ccn1)C1CCC(F)(F)CC1 [Example 210, N-((S)-1-(4,4-difluorocyclohexyl)-2-oxo-2-((4-((R)-1-((S)-2-oxo-4-(trifluoromethyl)imidazolidin-1-yl)propyl)pyridin-2-yl)amino)ethyl)-3-ethylisoxazole-4-carboxamide] | 7.42
O=C(CCC(F)(F)F)NC(c1ccnc(NC(=O)[C@@H](NC(=O)c2nonc2C2CC2)C(C2CC2)C2CC2)c1)C1CC1 (single isomer, unassigned) [Example 40] | 7.04
